Data reported in ChEMBL document CHEMBL1156368, “(+)-epi-Alpha-bisabolol [correction of bisbolol] is the wound-healing principle of Peperomia galioides: investigation of the in vivo wound-healing activity of related terpenoids” (J Nat Prod, 2001).
Converted amounts (≈) assume the structure as drawn. The source made the active and inactive calls. The calls are words filed in the database; no cut-off is given here.

Assays:
[1] = Growth inhibition of mouse 3T3 cells; assay type: cell-based; details: NIH3T3 cells
[2] = species: Mus musculus; test: Cicatrizant activity in mouse assessed as wound healing by tensile strength method; assay type: functional

SMILES	GI50 [1] [µg/mL]	ED50 [2]
CC(C)=CCC[C@](C)(O)[C@H]1CC=C(C)CC1	8 (≈ 36 µM)	–
CC1=CC[C@@H](C(C)(C)O)CC1 [ALPHA-TERPINEOL]	17 (≈ 110 µM)	240 mg/kg
COc1ccc2c(=O)oc3c(OC)cc(CCN(C)C)c4c(=O)oc1c2c34 [TASPINE]	–	15 mg/kg
C=CC(C)(O)CC/C=C(\C)CCC=C(C)C (stereo not drawn)	–	inactive
CC(C)=CCC[C@](C)(O)[C@@H]1CC=C(C)CC1 [LEVOMENOL]	84 (≈ 378 µM)	228 mg/kg
CC(C)=CCC/C(C)=C/CC/C(C)=C/CO	–	inactive
